In patent EP0743064A1, “Leukotriene antagonists for use in the treatment or prevention of alzheimer's disease” (ELI LILLY AND COMPANY, priority 1995, dated 1996):
Structures can show the parent of a compound that is named as a salt.

The compounds below were run against T1, binding of tritiated LTB4 to guinea pig lung membranes (Cavia porcellus, UniProt H0VYV8) (assay: biochemical).
T1 construct: contained 25 mg of guinea pig lung membrane protein; from tissue; host or cells: guinea pig lung membranes
T1 sequence (H0VYV8 1-348): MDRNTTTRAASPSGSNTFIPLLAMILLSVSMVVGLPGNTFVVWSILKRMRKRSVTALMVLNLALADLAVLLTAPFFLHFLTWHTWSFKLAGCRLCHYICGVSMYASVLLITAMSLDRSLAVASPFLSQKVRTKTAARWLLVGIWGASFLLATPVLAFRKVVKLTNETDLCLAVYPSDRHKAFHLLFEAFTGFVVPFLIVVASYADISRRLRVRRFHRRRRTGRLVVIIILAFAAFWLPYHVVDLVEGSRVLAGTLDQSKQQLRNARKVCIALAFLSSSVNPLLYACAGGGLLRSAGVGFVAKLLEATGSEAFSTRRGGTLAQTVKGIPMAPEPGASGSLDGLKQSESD
Protocol: The effectiveness of compounds of Formula I to inhibit the binding of tritiated LTB4 to guinea pig lung membranes was determined as follows.
[^3H]-LTB4 Radioligand Binding Assay in Guinea Pig Lung Membranes
The binding reaction was terminated by the addition of 1 mL ice cold wash buffer (25 mM Tris-HCl, pH 7.5) followed immediately by vacuum filtration over Whatman GF/C glass fiber filters using a Brandel (Gaithersburg, MD) 48 place harvester. The filters were washed three times with 1 mL of wash buffer. Retained radioactivity was determined by liquid scintillation counting at 50% counting efficiency using Ready Protein Plus cocktail (Beckman, Fullerton, CA). Nondisplaceable binding was determined in the presence of 1 mM LTB4 and was usually less than 10% of total binding. […] The data reported below is the mean -log Ki, otherwise known as the pKi, for n experiments.

Row | SMILES | Ki
1 | CCc1cc(-c2ccc(C(F)(F)F)cc2)c(O)cc1OCCCCCC(C)(C)c1nn[nH]n1 [disodium salt] | 66.1 nM
2 | CCc1cc(-c2cccc(N(C)C)c2)c(O)cc1OCCCCCC(C)(C)c1nn[nH]n1 [disodium salt] | 63.1 nM
3 | CCCc1c(OCCCOc2cc(O)c(-c3ccccc3)cc2CC)cccc1Oc1ccccc1C(=O)O [Example 61, 2-[2-Propyl-3-[3-(2-ethyl-5-hydroxy-4-phenylphenoxy)-propoxy]phenoxy]benzoic acid sodium salt hemihydrate] | 14.1 nM

These reach a lower Ki. Values come first.

Row | Ki | SMILES
4 | 3.8 nM | CCc1cc(-c2ccc(F)cc2)c(O)cc1OCCCCCC(c1ccc(OCC(=O)N(C)C)cc1)c1nn[nH]n1 (centres unmarked) [Example 86, 1-(4-(Dimethylaminocarbonylmethoxy)phenyl)-1-(1H-tetrazol-5-yl)-6-(2-ethyl-4-(4-fluorophenyl)-5-hydroxyphenoxy)hexane]
5 | 6.31 nM | CCc1cc(-c2ccc(F)cc2)c(O)cc1OCCCCCC(c1ccccc1)c1nn[nH]n1 (centres unmarked) [Example 84, 1-Phenyl-1-(1H-tetrazol-5-yl)-6-(2-ethyl-4-(4-fluorophenyl)-5-hydroxyphenoxy)hexane]
